According to patent US11028079B2 (ConverGene LLC, priority 2015, dated 2021):

target: T1, BRD4 bromodomains (Homo sapiens, UniProt O60885); assay: BROMOscan bromodomain competition binding assay (DiscoveRx); details: Kd from 11 compound concentrations ranging from 0 to 10 μM, read-out: BROMOscan Relative Activity
T1 construct: fused on or other part: T7 phage capsid protein (phage-display fusion; the phage DNA is read out by qPCR)
Procedure, shortened: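 Compounds in 0.1% DMSO/0.9% MEG competed with a solid-phase acetylated peptide for T7 phage-fused BRD4 bromodomains, with the retained bromodomain measured by qPCR.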

Compound | Kd
Cc1noc(C)c1-c1ccc2nc(C(=O)NCc3cncn3C)nc(N3CCOC[C@@H]3c3ccccc3)c2c1 [Example 279, (S)-6-(3,5-dimethylisoxazol-4-yl)-N-((1-methyl-1H-imidazol-5-yl)methyl)-4-(3-phenylmorpholino)quinazoline-2-carboxamide] | < 0.5 µM
Cc1noc(C)c1-c1ccc2nc(C(=O)NC3CCN(C)CC3)nc(N3CCOC[C@@H]3c3ccccc3)c2c1 [Example 280, (S)-6-(3,5-dimethylisoxazol-4-yl)-N-(1-methylpiperidin-4-yl)-4-(3-phenylmorpholino)quinazoline-2-carboxamide] | < 0.5 µM
Cc1nn(C)cc1CNC(=O)c1nc(N2CCOC[C@@H]2c2ccccc2)c2cc(-c3c(C)noc3C)ccc2n1 [Example 281, (S)—N-((1,3-dimethyl-1H-pyrazol-4-yl)methyl)-6-(3,5-dimethylisoxazol-4-yl)-4-(3-phenylmorpholino)quinazoline-2-carboxamide] | < 0.5 µM
Cc1noc(C)c1-c1ccc2nc(C(=O)NCC3CN(C)C3)nc(N3CCOC[C@@H]3c3ccccc3)c2c1 [Example 283, (S)-6-(3,5-dimethylisoxazol-4-yl)-N-((1-methylazetidin-3-yl)methyl)-4-(3-phenylmorpholino)quinazoline-2-carboxamide] | < 0.5 µM
Cc1noc(C)c1-c1ccc2nc(C(=O)N3CCc4[nH]ncc4C3)nc(NCc3cncc(Cl)c3)c2c1 [Example 284, (4-(((5-chloropyridin-3-yl)methyl)amino)-6-(3,5-dimethylisoxazol-4-yl)quinazolin-2-yl)(1,4,6,7-tetrahydro-5H-pyrazolo[4,3-c]pyridin-5-yl)methanone] | 0.5 to 5 µM
Cc1noc(C)c1-c1ccc2nc(C(=O)N3CCc4[nH]ncc4C3)nc(N3CCOC[C@@H]3c3ccccc3)c2c1 [Example 285, (S)-(6-(3,5-dimethylisoxazol-4-yl)-4-(3-phenylmorpholino)quinazolin-2-yl)(1,4,6,7-tetrahydro-5H-pyrazolo[4,3-c]pyridin-5-yl)methanone] | 0.5 to 5 µM
Cc1noc(C)c1-c1ccc2nc(C(=O)N3CCc4[nH]ncc4C3)nc(NC3(c4cccc(Cl)c4)CC3)c2c1 [Example 286, (4-((1-(3-chlorophenyl)cyclopropyl)amino)-6-(3,5-dimethylisoxazol-4-yl)quinazolin-2-yl)(1,4,6,7-tetrahydro-5H-pyrazolo[4,3-c]pyridin-5-yl)methanone] | < 0.5 µM
Cc1noc(C)c1-c1ccc2nc(C(=O)N3CCc4[nH]ncc4C3)nc(NCc3cccc(Cl)c3)c2c1 [Example 287, (4-((3-chlorobenzyl)amino)-6-(3,5-dimethylisoxazol-4-yl)quinazolin-2-yl)(1,4,6,7-tetrahydro-5H-pyrazolo[4,3-c]pyridin-5-yl)methanone] | < 0.5 µM
Cc1noc(C)c1-c1ccc2nc(C(=O)N3CCc4[nH]ncc4C3)cc(NCc3cccc(Cl)c3)c2c1 [Example 288, (4-((3-chlorobenzyl)amino)-6-(3,5-dimethylisoxazol-4-yl)quinolin-2-yl)(1,4,6,7-tetrahydro-5H-pyrazolo[4,3-c]pyridin-5-yl)methanone] | 0.5 to 5 µM
Cc1noc(C)c1-c1ccc2nc(N3CCc4[nH]ncc4C3)nc(NCc3cccc(Cl)c3)c2c1 [Example 290, N-(3-chlorobenzyl)-6-(3,5-dimethylisoxazol-4-yl)-2-(1,4,6,7-tetrahydro-5H-pyrazolo[4,3-c]pyridin-5-yl)quinazolin-4-amine] | 0.5 to 5 µM
Cc1noc(C)c1-c1ccc2nc(-c3cnn(CC(C)(C)O)c3)nc(N3CCNC[C@@H]3c3ccccc3)c2c1 [Example 291, (S)-1-(4-(6-(3,5-dimethylisoxazol-4-yl)-4-(2-phenylpiperazin-1-yl)quinazolin-2-yl)-1H-pyrazol-1-yl)-2-methylpropan-2-ol] | < 0.5 µM
Cc1noc(C)c1-c1ccc2nc(N3CCN(C)CC3)nc(N3CCOC[C@@H]3c3ccccc3)c2c1 [Example 293, (S)-4-(6-(3,5-dimethylisoxazol-4-yl)-2-(4-methylpiperazin-1-yl)quinazolin-4-yl)-3-phenylmorpholine] | < 0.5 µM
CC(=O)N1CCN(c2nc(N3CCOC[C@@H]3c3ccccc3)c3cc(-c4c(C)noc4C)ccc3n2)CC1 [Example 294, (S)-1-(4-(6-(3,5-dimethylisoxazol-4-yl)-4-(3-phenylmorpholino)quinazolin-2-yl)piperazin-1-yl)ethan-1-one] | < 0.5 µM
CNC(=O)C1CCN(c2nc(N3CCOC[C@@H]3c3ccccc3)c3cc(-c4c(C)noc4C)ccc3n2)CC1 [Example 296, (S)-1-(6-(3,5-dimethylisoxazol-4-yl)-4-(3-phenylmorpholino)quinazolin-2-yl)-N-methylpiperidine-4-carboxamide] | < 0.5 µM
Cc1noc(C)c1-c1ccc2nc(-c3cnn(CC(N)=O)c3)nc(N3CCOC[C@@H]3c3ccccc3)c2c1 [Example 297, (S)-2-(4-(6-(3,5-dimethylisoxazol-4-yl)-4-(3-phenylmorpholino)quinazolin-2-yl)-1H-pyrazol-1-yl)acetamide] | < 0.5 µM
CCNC(=O)N1CCN(c2nc(N3CCOC[C@@H]3c3ccccc3)c3cc(-c4c(C)noc4C)ccc3n2)CC1 [Example 299, (S)-4-(6-(3,5-dimethylisoxazol-4-yl)-4-(3-phenylmorpholino)quinazolin-2-yl)-N-ethylpiperazine-1-carboxamide] | < 0.5 µM
Cc1noc(C)c1-c1ccc2nc(N3CCN(C(=O)c4cnn(C)c4)CC3)nc(N3CCOC[C@@H]3c3ccccc3)c2c1 [Example 300, (S)-(4-(6-(3,5-dimethylisoxazol-4-yl)-4-(3-phenylmorpholino)quinazolin-2-yl)piperazin-1-yl)(1-methyl-1H-pyrazol-4-yl)methanone] | < 0.5 µM
Cc1noc(C)c1-c1ccc2nc(N3CCN(CC(=O)N(C)C)CC3)nc(N3CCOC[C@@H]3c3ccccc3)c2c1 [Example 303, (S)-2-(4-(6-(3,5-dimethylisoxazol-4-yl)-4-(3-phenylmorpholino)quinazolin-2-yl)piperazin-1-yl)-N,N-dimethylacetamide] | < 0.5 µM
Cc1noc(C)c1-c1ccc2nc(N3CCN(C(=O)CO)CC3)nc(N3CCOC[C@@H]3c3ccccc3)c2c1 [Example 305, (S)-1-(4-(6-(3,5-dimethylisoxazol-4-yl)-4-(3-phenylmorpholino)quinazolin-2-yl)piperazin-1-yl)-2-hydroxyethan-1-one] | < 0.5 µM
Cc1noc(C)c1-c1ccc2nc(N3CCN(CC(N)=O)CC3)nc(N3CCOC[C@@H]3c3ccccc3)c2c1 [Example 307, (S)-2-(4-(6-(3,5-dimethylisoxazol-4-yl)-4-(3-phenylmorpholino)quinazolin-2-yl)piperazin-1-yl)acetamide] | < 0.5 µM
CC(=O)N1CCN(c2nc(-c3cnn(CC(C)(C)O)c3)nc3ccc(-c4c(C)noc4C)cc23)[C@@H](c2ccccc2)C1 [Example 309, (S)-1-(4-(6-(3,5-dimethylisoxazol-4-yl)-2-(1-(2-hydroxy-2-methylpropyl)-1H-pyrazol-4-yl)quinazolin-4-yl)-3-phenylpiperazin-1-yl)ethan-1-one] | < 0.5 µM

Second part, the compound after the results:

Kd | Compound
< 0.5 µM | Cc1noc(C)c1-c1ccc2nc(N3CCc4[nH]ncc4C3)nc(N3CCOC[C@@H]3c3ccccc3)c2c1 [Example 282, (S)-4-(6-(3,5-dimethylisoxazol-4-yl)-2-(1,4,6,7-tetrahydro-5H-pyrazolo[4,3-c]pyridin-5-yl)quinazolin-4-yl)-3-phenylmorpholine]
< 0.5 µM | Cc1noc(C)c1-c1ccc2nc(N3CCc4c(cnn4C)C3)nc(N3CCOC[C@@H]3c3ccccc3)c2c1 [Example 289, (S)-4-(6-(3,5-dimethylisoxazol-4-yl)-2-(1-methyl-1,4,6,7-tetrahydro-5H-pyrazolo[4,3-c]pyridin-5-yl)quinazolin-4-yl)-3-phenylmorpholine]
< 0.5 µM | Cn1cc(-c2ccc3nc(-c4cnn(CC(C)(C)O)c4)nc(N4CCOC[C@@H]4c4ccccc4)c3c2)ccc1=O [Example 292, (S)-5-(2-(1-(2-hydroxy-2-methylpropyl)-1H-pyrazol-4-yl)-4-(3-phenylmorpholino)quinazolin-6-yl)-1-methylpyridin-2(1H)-one]
< 0.5 µM | Cc1noc(C)c1-c1ccc2nc(N3CCN(CC(C)(C)O)CC3)nc(N3CCOC[C@@H]3c3ccccc3)c2c1 [Example 295, (S)-1-(4-(6-(3,5-dimethylisoxazol-4-yl)-4-(3-phenylmorpholino)quinazolin-2-yl)piperazin-1-yl)-2-methylpropan-2-ol]
< 0.5 µM | CNC(=O)CN1CCN(c2nc(N3CCOC[C@@H]3c3ccccc3)c3cc(-c4c(C)noc4C)ccc3n2)CC1 [Example 298]
< 0.5 µM | Cc1noc(C)c1-c1ccc2nc(-c3cnn(CC(=O)N(C)C)c3)nc(N3CCOC[C@@H]3c3ccccc3)c2c1 [Example 301, (S)-2-(4-(6-(3,5-dimethylisoxazol-4-yl)-4-(3-phenylmorpholino)quinazolin-2-yl)-1H-pyrazol-1-yl)-N,N-dimethylacetamide]
< 0.5 µM | Cc1noc(C)c1-c1ccc2nc(-c3cnn(CS(C)(=O)=O)c3)nc(N3CCOC[C@@H]3c3ccccc3)c2c1 [Example 302, (S)-4-(6-(3,5-dimethylisoxazol-4-yl)-2-(1-((methylsulfonyl)methyl)-1H-pyrazol-4-yl)quinazolin-4-yl)-3-phenylmorpholine]
< 0.5 µM | Cc1noc(C)c1-c1ccc2nc(-c3cnn(C(C)(C)CO)c3)nc(N3CCOC[C@@H]3c3ccccc3)c2c1 [Example 304, (S)-2-(4-(6-(3,5-dimethylisoxazol-4-yl)-4-(3-phenylmorpholino)quinazolin-2-yl)-1H-pyrazol-1-yl)-2-methylpropan-1-ol]
< 0.5 µM | Cc1noc(C)c1-c1ccc2nc(-c3cnn(CCO)c3)nc(N3CCOC[C@@H]3c3ccccc3)c2c1 [Example 306, (S)-2-(4-(6-(3,5-dimethylisoxazol-4-yl)-4-(3-phenylmorpholino)quinazolin-2-yl)-1H-pyrazol-1-yl)ethan-1-ol]
< 0.5 µM | Cc1noc(C)c1-c1ccc2nc(N3CCN(C[C@H](C)O)CC3)nc(N3CCOC[C@@H]3c3ccccc3)c2c1 [Example 308, (S)-1-(4-(6-(3,5-dimethylisoxazol-4-yl)-4-((S)-3-phenylmorpholino)quinazolin-2-yl)piperazin-1-yl)propan-2-ol]
